Reference: PMC8199613, “Discovery of Novel Small-Molecule Inhibitors of PD-1/PD-L1 Interaction via Structural Simplification Strategy” (Molecules, 2021)
≈ marks a conversion by molar mass, not a printed value.

Columns and labels:
[1] = biological target: T1, PD-1/PD-L1 interaction (Homo sapiens, UniProt Q9NZQ7); experiment: HTRF-based PD-1/PD-L1 binding assay; conditions: for IC50 / inhibition at 0.1 µM / inhibition at 1 µM: HTRF; for IC50: two independent experiments; for LE: LE = −1.35 logIC50/Nheavy atoms (HTRF IC50); for inhibition at 0.1 µM: 0.1 μM compound, read-out: Inhibitory Rate (%) 0.1 μM; for inhibition at 1 µM: 1 μM compound, read-out: Inhibitory Rate (%) 1 μM
T1 construct: purchased Cisbio 64ICP01PEG
T1 sequence (Q9NZQ7 19-238 limits assumed): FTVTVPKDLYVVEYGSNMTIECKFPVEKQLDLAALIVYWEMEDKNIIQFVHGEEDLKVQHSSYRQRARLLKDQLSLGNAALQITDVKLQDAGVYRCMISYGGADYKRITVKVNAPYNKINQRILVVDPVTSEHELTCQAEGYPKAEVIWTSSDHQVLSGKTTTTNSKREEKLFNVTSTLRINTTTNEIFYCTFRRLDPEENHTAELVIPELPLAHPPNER

[2] = biological target: hPD-L1 (Homo sapiens, UniProt Q9NZQ7); experiment: SPR binding affinity assay (Biacore T200)
hPD-L1, sequence (Q9NZQ7 19-238 limits assumed): as above
Experimental: To provide definitive evidence of direct binding to PD-L1 with small-molecule inhibitors, an SPR-based binding assay was performed using Biacore T200 instrument, which facilitates measurement of the kinetic parameters of ligand–protein complex formation. In this determination, hPD-L1/Fc was loaded on a Series S Sensor Chip Protein A. A9 and A15, with similar bioactivities in HTRF assay, were gradually subjected to this assay, and their kinetic parameters and the binding affinities were determined with the aid of Biacore evaluation software.
SPR analysis was carried out according to the method described by a previous article. The kinetic analysis for the interaction of small molecules with hPD-L1 was performed on a Biacore T200 (GE Healthcare Bio-sciences, Uppsala, Sweden) using Series S Sensor Chip Protein A (GE Healthcare Bio-sciences, Uppsala, Sweden, catalog # 29139131-AA). Briefly, Fc-hPD-L1 (Acro Biosystems, Cambridge, MA, USA, catalog #PD1-H5258) was diluted using 1 × PBS-P^+ buffer (phosphate buffer 1×, GE Healthcare Bio-sciences, catalog # 28-9950-84, enriched with 0.05% surfactant P20) containing 5% DMSO (Sigma-Aldrich, St. Louis, MO, America, catalog # D4540) and captured as the ligand (i.e., the target of small molecules) on protein A chip surface following Biacore T200 build-in protocol for kinetic/affinity analysis at a concentration of 10 μg/mL. The contact time and flow rates were set as 120 s and 10 μL/min for the ligand capture. Each experiment was performed using a pair of flow cells, one with ligand captured and the other kept as reference. A concentration gradient of analytes was freshly prepared in 1× PBS-P^+ buffer with 5% DMSO with at least five concentrations, and the concentration range was optimized according to different analytes. Analytes could flow through both ligand-captured flow cells and reference flow cells at the same rate (30 μL/min) and contact time (90 s). Solvent correction was included to avoid the impact of DMSO on surface plasmon effect during binding analysis. Extra washing of the flow system using 50% DMSO in 1×PBS-P^+ buffer was allowed to control carry over effects. For the regeneration of surface after each cycle (one-time ligand capture and binding of analyte at a single concentration) was carried out using 10 mM glycine pH 1.5 (GE Healthcare Bio-sciences, Uppsala, Sweden, catalog #BR-1003-54) at a flow rate of 30 μL/min for 30 s. Kinetic analysis was performed at 25 °C. Maximum binding response (Rmax) and equilibrium dissociation […] (KD) values were calculated using Biacore T200 Evaluation software following the 1:1 binding model.

[3] = tested on: MDA-MB-231 cells; experiment: MTT non-specific cytotoxicity assay, MDA-MB-231; type: cell-based; conditions: for EC50: Homo sapiens, MDA-MB-231, 48 h, read-out: EC50 (μM)/MDA-MB-231 Toxicity; for direct killing of tumor cells: as shown in Table 3
Experimental: (§1) Considering that the toxicity of the compound might strongly interfere with the assay if the tested compounds could block PD-1/PD-L1 interaction to activate T cells for killing tumors, we examined their cell toxicities of MDA-MB-231 and Jurkat T cells in MTT assay. […] Furthermore, Jurkat T cells were used to simulate primary T cells for investigating the immune toxicity of the treated compounds with the regular concentrations within 48 h.
(§2) The MDA-MB-231 and Jurkat cell line was provided by the Chinese Academy of Sciences Cell Bank. The cytotoxicity of the test compounds was determined using the MTT assay. Briefly, MDA-MB-231 and Jurkat cells were incubated at 37 °C in a humidified 5% CO2 incubator for 24 h in 96-microwell plates. Then, 100 μL of culture medium containing the test compounds at different concentrations was added to each well and incubated at 37 °C for another 48 h. The MTT was added and incubated for another 4 h, and the optical density was detected with a microplate reader at 570 nm. The IC50 values were calculated according to the dose-dependent curves.

[4] = tested on: Jurkat T cells; experiment: MTT non-specific cytotoxicity assay, Jurkat; type: cell-based; conditions: for EC50: Homo sapiens, Jurkat, MTT, 48 h, read-out: EC50 (μM)/Jurkat Toxicity; for immune toxicity in Jurkat T cells: regular concentrations within 48 h
Experimental: as §1, §2

[5] = Water solubility by HPLC; type: physicochemical; conditions: aqueous buffer, thermodynamic from solid, pH 7.4, PBS
Experimental: The aqueous solubility was estimated by HPLC. The HPLC analysis was performed on a Shimadzu LC-20AT machine with a BDS Hypersil C18 column, and the column temperature was at 28 °C. Mobile phase B (100% MeOH) and mobile phase A (100% water) were used in a gradient elution program (0 min: 30% (B), 2 min: 50% (B), 8 min: 95% (B), 14 min: 95% (B), 18 min: 70% (B), 20 min: 30% (B)) with a flow rate of 1.0 mL/min at […]. Methanol was used to configure an accurate compounds concentration to calculate the standard curve. The excess test compound was dissolved in PBS (KH2PO4 0.24 g + KCl 0.2 g + NaCl 8 g + Na2HPO4·12H2O 3.58 g + 1 L water) and then analyzed by HPLC.

| SMILES | IC50 [1] | LE [1] | melting point | also measured |
| --- | --- | --- | --- | --- |
| COc1nc(-c2cccc(-c3ccc(F)cc3)c2C)ccc1CNCCC(N)=O [Compound A15] | 0.97 nM | 0.43 | 120 to 122 °C | LE ([2]; LE = -1.35log KD/Nheavy atoms (SPR KD)): 0.36; kon ([2]; SPR association rate, read-out: Ka (M-1s-1) / Kon): 505000 M⁻¹ s⁻¹; koff ([2]; SPR dissociation rate, read-out: Kd (s-1) / Koff): 0.0101 s⁻¹; Kd ([2]; SPR, 25 °C, 1:1 binding model): 19.9 nM; EC50 [3]: 10.2 µM; direct killing of tumor cells [3]: do not directly kill tumor cells; EC50 [4]: 5.5 µM; immune toxicity in Jurkat T cells [4]: lower cell toxicity |
| COc1nc(OCc2cccc(-c3ccccc3)c2C)ccc1CNCCNC(C)=O [BMS-202, reference compound] |  |  |  | solubility [5]: 90 µg/mL (≈ 215 µM) |
| COc1nc(-c2cccc(-c3ccccc3)c2C)ccc1CNCCC(N)=O [Compound A13] | 1.94 nM | 0.43 | 127 to 128 °C | increase in potency over compound A11 ([1]; HTRF IC50 ratio): approximately 3 fold; EC50 [3]: > 10 µM; direct killing of tumor cells [3]: do not directly kill tumor cells; EC50 [4]: 7.73 µM |
| COc1nc(-c2cccc(-c3ccccc3C(F)(F)F)c2C)ccc1CNCCC(N)=O [Compound A12] | 51.5 nM | 0.31 | 50.5 to 53.5 °C | decrease in activity as compared with A9 ([1]; HTRF IC50 ratio): more than 10 fold |
| Cc1ccccc1-c1cccc(OCCCN2CCC(O)CC2)c1C.Cl [Compound A1, 1-(3-((2,2′-Dimethyl-[1,1′-biphenyl]-3-yl)oxy)propyl)piperidin-4-ol hydrochloride] | 114 nM | 0.38 |  | inhibition at 0.1 µM [1]: 56%; inhibition at 1 µM [1]: 90% |
| COc1nc(-c2cccc(-c3ccc(F)cc3F)c2C)ccc1CNCCC(N)=O [Compound A16] | 60 nM | 0.33 | 113 to 115 °C |  |
| Cc1c(CN2CCC(N3CCC(O)CC3)CC2)cccc1-c1ccccc1F [Compound A2, 1′-((2′-Fluoro-2-methyl-[1,1′-biphenyl]-3-yl)methyl)-[1,4′-bipiperidin]-4-ol] |  |  | 110 to 113 °C | inhibition at 0.1 µM [1]: 8.5%; inhibition at 1 µM [1]: 6.7% |
| COc1nc(-c2cccc(-c3cccc(F)c3)c2C)ccc1CNCCC(N)=O [Compound A14, 3-(((6-(3′-Fluoro-2-methyl-[1,1′-biphenyl]-3-yl)-2-methoxypyridin-3-yl)methyl)amino)propenamide] | 1.75 nM | 0.41 | 48 to 51 °C | EC50 [3]: > 10 µM; direct killing of tumor cells [3]: do not directly kill tumor cells; EC50 [4]: > 10 µM |
| COc1nc(-c2cccc(-c3ccc(Cl)cc3F)c2C)ccc1CNCCC(N)=O [Compound A17] | 866 nM | 0.28 | 122 to 124 °C |  |
| COc1nc(-c2cccc(-c3ccc(C(F)(F)F)cc3F)c2C)ccc1CNCCC(N)=O [Compound A18] | 791 nM | 0.25 | 137 to 139 °C |  |

Second part, led by results:

| IC50 [1] | LE [1] | melting point | SMILES | also measured |
| --- | --- | --- | --- | --- |
| 20.6 nM | 0.33 | 218 to 220 °C | COc1nc(-c2cccc(-c3ccccc3F)c2C)ccc1CN1CCC(C(=O)O)CC1 [Compound A8, 1-((6-(2′-Fluoro-2-methyl-[1,1′-biphenyl]-3-yl)-2-methoxypyridin-3-yl)methyl)piperidine-4-carboxylic acid] |  |
| 10.7 nM | 0.34 | 194 to 196 °C | COc1nc(-c2cccc(-c3ccccc3F)c2C)ccc1CN1CCC(C(N)=O)CC1 [Compound A7, 1-((6-(2′-Fluoro-2-methyl-[1,1′-biphenyl]-3-yl)-2-methoxypyridin-3-yl)methyl)piperidine-4-carboxamide] |  |
| 21.9 nM | 0.36 | 84 to 86 °C | COc1nc(-c2cccc(-c3ccccc3F)c2C)ccc1CN1CCC(O)CC1 [Compound A4, 1-((6-(2′-Fluoro-2-methyl-[1,1′-biphenyl]-3-yl)-2-methoxypyridin-3-yl)methyl)piperidin-4-ol] | inhibition at 0.1 µM [1]: 71%; inhibition at 1 µM [1]: 98% |
| 121 nM | 0.30 | 88 to 91 °C | COc1nc(-c2cccc(-c3ccccc3F)c2C)ccc1CN1CCCC(C(N)=O)C1 (stereo not drawn) [Compound A6, 1-((6-(2′-Fluoro-2-methyl-[1,1′-biphenyl]-3-yl)-2-methoxypyridin-3-yl)methyl)piperidine-3-carboxamide] |  |
| 6.18 nM | 0.39 | 49 to 51 °C | COc1nc(-c2cccc(-c3ccccc3Cl)c2C)ccc1CNCCC(N)=O [Compound A11] | EC50 [3]: 7.1 µM; direct killing of tumor cells [3]: do not directly kill tumor cells; EC50 [4]: 5.5 µM; immune toxicity in Jurkat T cells [4]: lower cell toxicity |
| 10.5 nM | 0.38 | 70 to 73 °C | COc1nc(-c2cccc(-c3ccccc3C)c2C)ccc1CNCCC(N)=O [Compound A10] | decrease in activity as compared with A9 ([1]; HTRF IC50 ratio): more than 10 fold |
| 18.4 nM | 0.35 | 61.5 to 63.5 °C | COc1cc(-c2cccc(-c3ccccc3F)c2C)ccc1CN1CCC(O)CC1 [Compound A3, 1-((2″-Fluoro-3-methoxy-2′-methyl-[1,1′:3′,1″-terphenyl]-4-yl)methyl)piperidin-4-ol] | inhibition at 0.1 µM [1]: 74.5%; inhibition at 1 µM [1]: 96.2% |
| 14.3 nM | 0.35 | 80 to 82 °C | COc1nc(-c2cccc(-c3ccccc3F)c2C)ccc1CNC1CCC(O)CC1 (stereo not drawn) [Compound A5, 4-(((6-(2′-Fluoro-2-methyl-[1,1′-biphenyl]-3-yl)-2-methoxypyridin-3-yl)methyl)amino)cyclohexan-1-ol] |  |
